Test system: Deer Ticks, Ixodes ricinus
Test: Efficacy of nootkatone formulations against ticks on human forearm skin (complete protection time)
Type: in vivo
Conditions: FIG. 1; human skin test
Protocol: The objective of the study was estimate the complete protection time (CPT) of the various repellent formulations against ticks. Complete protection time (CPT) was measured as the length of time from initial application to the First Confirmed Crossing (FCC).
A number of 32 volunteers were selected based on signing of informed consent form and passing the sensitivity test, 24-48 hours before the initiation of the experiment. The volunteers were briefed about the experiment in detail prior to signing the consent form. Test volunteers were instructed to avoid alcohol, tobacco, caffeine, and fragrance products (e.g., perfume, cologne, hair spray, lotion, etc.) at least for 12 hours before, and during the test.
The test substance/positive control (liquid) was applied at 1 ml/600 cm^2±10% deviation. […] The treatment area was calculated by measuring the circumference (cm) of the wrist (B), the circumference (cm) at the elbow-cubital fossa (C) when the arm is extended, and the distance (cm) from the elbow to the wrist (D) The surface area (in cm^2) of skin was calculated by: […]
Fresh ticks were exposed to the treated area one at a time, at regular intervals of 30 minutes until the first crossing or observation were recorded as “not repelled.” The cycle continues until efficacy failure or the end of the study, whichever occurs first. […]

Structure (SMILES): OCc1ccccc1 [benzyl alcohol]
- effect of ingredient on CPT of the compositions: effective in prolonging the CPT
